These results are taken from ChEMBL document CHEMBL1201862, “PubChem BioAssay data set” (2004).

Some test systems named below: EKVX; OVCAR-4; SNB-19; NCI-H23; SF-295; CAKI-1; SR; DLD-1; SW-620; K562; A549; M19-MEL; OVCAR-5; HCT-15; UACC-257; COLO 205; A498.
Test in all cases: NCI-60 cell line screen, 48 h

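How tested: cells in 96-well plates exposed to compound for 48 hours at five concentrations. GI50 marks 50% less growth.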 The source made the active and inactive calls. No stated cut-off is given here; in the data, active = GI50 up to about 1.1 µM and inactive = higher.

As for `CCCCC/C=C1\CCC(CN(C)C)C1=O` (stereo unspecified), the GI50 with EKVX was 26 µM (inactive); with OVCAR-4, 20.1 µM (inactive); in the test on SNB-19, 19.5 µM (inactive); in the test with NCI-H23, 17.7 µM (inactive); in the test on SF-295, 20 µM (inactive); in the test with CAKI-1 it was 7.05 µM (inactive). Moreover, the GI50 in the test with SR is 3.79 µM (inactive); in the test with DLD-1 it was 3.73 µM (inactive); in the test with SW-620, 3.76 µM (inactive); in the test with K562, 1.94 µM (inactive); in the test on A549, 34.1 µM (inactive); in the test with M19-MEL, 10.4 µM (inactive). The GI50 with OVCAR-5 is 18.6 µM (inactive); with HCT-15 it was 3.17 µM; in the test with UACC-257 it was 16.3 µM (inactive); with COLO 205, 8.99 µM (inactive).
Take `O=C1CC2C(=O)N(Cc3ccccc3)C1C=C2S(=O)(=O)c1ccccc1` (stereo unspecified): the GI50 in the test with EKVX, in the test with OVCAR-4, in the test on SNB-19, in the test with NCI-H23, in the test with SF-295 and with SR was > 100 µM (inactive) each time. For the same compound, the GI50 in the test with DLD-1, in the test with SW-620, in the test on A498, in the test on K562, with A549 and in the test with M19-MEL was > 100 µM (inactive) in each case. Moreover, the GI50 in the test on UACC-257 and with COLO 205 was > 100 µM (inactive) each time.
For `N#CCc1nnc(N)o1`, the GI50 in the test with EKVX, with SNB-19, in the test with NCI-H23, with SF-295, with CAKI-1 and with SR was > 100 µM (inactive) throughout. Also, the GI50 was > 100 µM (inactive) with DLD-1; > 100 µM (inactive) in the test with SW-620; > 100 µM (inactive) in the test with K562; > 100 µM (inactive) in the test on A549; > 100 µM (inactive) in the test with M19-MEL; over 100 µM with HCT-15. For the same compound, the GI50 with UACC-257 was > 100 µM (inactive).
Regarding `O=C(COc1ccc(Cl)cc1)N1N=C(c2ccc([N+](=O)[O-])o2)CC1(O)c1ccccc1` (stereo unspecified), the GI50 in the test with OVCAR-4 is 7.11 µM (inactive); in the test on SNB-19, 11.9 µM (inactive); with NCI-H23, 2.03 µM (inactive); in the test on SF-295, 10.7 µM (inactive); in the test on CAKI-1 it was 17.4 µM (inactive); with SR it was 2.59 µM (inactive). For the same compound, the GI50 in the test on DLD-1 was 4.66 µM (inactive); in the test with SW-620 it was 4.71 µM (inactive); with K562, 3.72 µM (inactive); with A549, 10 µM (inactive); in the test with M19-MEL, 2.44 µM (inactive); in the test with OVCAR-5, 15.8 µM (inactive). In addition, the GI50 in the test with HCT-15 is 3.05 µM; with UACC-257 it was 4.05 µM (inactive); with COLO 205, 3.52 µM (inactive).
As to `CC(C)(C)OC1=C(OC(C)(C)C)C(O)(c2ccc(Cl)cc2)C1=O` (stereo unspecified), the GI50 in the test with EKVX, with OVCAR-4, with SNB-19, in the test on NCI-H23, in the test with SF-295 and in the test with SR was > 100 µM (inactive) throughout. For the same compound, the GI50 with DLD-1, with SW-620, in the test on A498, with K562, in the test with A549 and in the test on M19-MEL was > 100 µM (inactive) in each case. Moreover, the GI50 in the test with OVCAR-5 is > 100 µM (inactive); in the test on HCT-15 it was over 100 µM; with COLO 205 it was > 100 µM (inactive).
For the compound `CC(=O)/C=C/c1ccc(C)cc1`, the GI50 in the test with EKVX, with OVCAR-4, in the test with SNB-19, in the test on NCI-H23, in the test with SF-295 and with CAKI-1 was > 100 µM (inactive) throughout. The GI50 in the test on DLD-1, with SW-620, with A498, with K562, in the test on A549 and in the test with M19-MEL was > 100 µM (inactive) in each case. The GI50 is > 100 µM (inactive) with OVCAR-5, over 100 µM with HCT-15, > 100 µM (inactive) in the test on UACC-257 and > 100 µM (inactive) in the test on COLO 205.
On to `C/C=C/C=N/N(C(=O)c1cc([N+](=O)[O-])cc([N+](=O)[O-])c1)C1=NN=C(c2ccccc2)C(c2ccccc2)N1` (stereo unspecified), for which the GI50 with EKVX is > 100 µM (inactive); with OVCAR-4 it was 68.4 µM (inactive); in the test on SNB-19 it was > 100 µM (inactive); in the test on NCI-H23, 26.9 µM (inactive); in the test on SF-295, 94.6 µM (inactive); in the test with CAKI-1, > 100 µM (inactive). Also, the GI50 in the test on DLD-1 is 75.7 µM (inactive); with SW-620, 55 µM (inactive); in the test on A498 it was > 100 µM (inactive); with K562, 52.8 µM (inactive); with A549 it was 61.2 µM (inactive); with M19-MEL it was 21.6 µM (inactive). Moreover, the GI50 is > 100 µM (inactive) with OVCAR-5, 41.4 µM in the test with HCT-15, 26.5 µM (inactive) with UACC-257 and 30.5 µM (inactive) in the test with COLO 205.
On to `C=C1CC(c2ccc(O)c(OC)c2)Oc2c(OC)cccc21` (stereo unspecified), for which the GI50 with EKVX was 40.6 µM (inactive); in the test on OVCAR-4, 54 µM (inactive); with SNB-19, 44.9 µM (inactive); with NCI-H23, 32.9 µM (inactive); in the test on SF-295 it was 80.5 µM (inactive); in the test with CAKI-1 it was 34.8 µM (inactive). For the same compound, the GI50 with SR was 19.7 µM (inactive); in the test on DLD-1, 37 µM (inactive); in the test with SW-620, 34 µM (inactive); in the test with K562, 19.7 µM (inactive); in the test with A549 it was 33.7 µM (inactive); with M19-MEL, 48 µM (inactive). Further, the GI50 with OVCAR-5 was 65.5 µM (inactive); in the test on HCT-15 it was 34 µM; in the test with UACC-257, 39.3 µM (inactive); with COLO 205, > 100 µM (inactive).
On to `C=C1C[C@]23CCC4C(C)(C)C(=O)CC[C@]4(C)C2C[C@H]1C(O)C3=O` (stereo partly specified), for which the GI50 in the test with EKVX, in the test with OVCAR-4, in the test on SNB-19, in the test with NCI-H23, in the test with SF-295 and in the test on SR was > 75 µM (inactive) throughout. Besides, the GI50 in the test on DLD-1, with SW-620, in the test on A498, in the test on K562, in the test on A549 and in the test on M19-MEL was > 75 µM (inactive) throughout. The GI50 in the test on HCT-15 was over 75 µM; in the test with UACC-257, > 75 µM (inactive); in the test with COLO 205 it was > 75 µM (inactive).
With `CCOC(=O)Cc1csc(Nc2ccc(OCC)cc2)n1`, the GI50 is > 100 µM (inactive) in the test on EKVX; > 100 µM (inactive) in the test with OVCAR-4; > 100 µM (inactive) in the test with SNB-19; 50.7 µM (inactive) in the test on NCI-H23; > 100 µM (inactive) in the test on SF-295; 73.8 µM (inactive) in the test with SR. Moreover, the GI50 is > 100 µM (inactive) with DLD-1; > 100 µM (inactive) with SW-620; > 100 µM (inactive) in the test with A498; 92.7 µM (inactive) with K562; > 100 µM (inactive) in the test with A549; > 100 µM (inactive) in the test with M19-MEL. For the same compound, the GI50 in the test on HCT-15 was over 100 µM; with UACC-257, > 100 µM (inactive); with COLO 205, > 100 µM (inactive).
